Data from patent US8124390B2, “Aromatic prenyltransferases, nucleic acids encoding same and uses therefor” (The Salk Institute for Biological Studies, priority 2005, dated 2012).

Tests used:
Orf2 [1] = assay: Detection of prenyltransferase activity of ORF2, TLC with UV 254 nm, incl. Mg2+ dependence; type: biochemical, Streptomyces sp. strain CL190; details: for reaction products of prenyl acceptor with ORF2: additional studies of Example 5; for prenyltransferase activity of ORF2: 5 mM prenyl acceptor, 5 mM MgCl2, 4 hrs room temperature; for prenylated products with ORF2: 5 mM DHN2, 5 mM GPP
Orf2 [2] = assay: Promiscuous activity of ORF2 with flavonoids and other compounds, [14C]GPP TLC; type: biochemical, Streptomyces sp. strain CL190; details: for Orf2 prenyltransferase activity in the presence of flavonoids, isoflavonoids and related compounds: GPP as prenyl donor, FIG. 2B; for function as substrates for Orf2 (converted into prenylated derivatives): purified recombinant Orf2 incubated with prenyl donor and prenyl acceptor, FIGS. 2A and 2B
Description: FIG. 2B illustrates the promiscuous activity of Orf2. Several assays were conducted, employing a variety of potential substrates, i.e., 1,3-DHN (1), 1,6-DHN (2), 2,7-DHN (3), 4-HPP (4) and several isoflavonoids and polyketide derivatives, including daidzein (7,4′-dihydroxyisoflavonone, 5), formononetin (7-hydroxy, 4′-methoxyisoflavonone, 6), fisetin (3,3′,4′,7-tetrahydroxyflavone, 7), genistein (5,7,4′-trihydroxyisoflavone, 8), naringenin (5,7,4′-trihydroxyflavonone, 9), flaviolin (10), olivetol (11), olivetolic acid (12), and resveratrol (3,4′,5-trihydroxystilbene, 13). The chemical structures of four reaction products (i.e., 1,6-dihydroxy 2-geranyl naphthalene (14), 1,6-dihydroxy 5-geranyl naphthalene (15), 6-geranyl naringenin (16) and 7-O-geranyl naringenin (17)) were determined by both MS and ^1H NMR analyses. The reaction buffer consisted of 50 mM HEPES (pH 7.5), 5 mM MgCl2, and 0.1 mM GPP, 0.009 mM [^14C]GPP, and 0.1 mM of each substrate, in a final volume of 20 μl. The reaction was initiated by adding 30 μg of Orf2 to the assay mixture. After incubation at 25° C. for 6 hours, the mixture was dried, and spotted on a silica gel TLC plate. The TLC plate was developed with a chloroform/methanol (15:1) solvent mixture. Reaction products were detected with a [^14C] imaging plate (Fuji Photo Film).
The reaction buffer employed contained 50 mM HEPES (pH 7.5), 5 mM DTT (as needed), 5 mM MgCl2, 0.1 mM of each prenyl acceptor, 0.1 mM GPP, and 0.01 mM [^14C]GPP in a final volume of 20 μl. The reaction was initiated by adding 20 μg of ORF2 protein to the assay mixture. After incubation at room temperature for 4 hrs., the reaction mixture was dried using SpeedVac and the dried residue was spotted on a silica gel TLC plate. The plate was developed with chloroform:methanol (15-30:1). Reaction products were detected with a phosphoimager. The compounds tested were daidzein, fisetin, formononetin, genistein, naringenin, 4-HPP and DHN2.

HypSc = assay: Detection of prenyltransferase activity of HypSc (TLC); type: biochemical, Streptomyces coelicolor A3(2); details: for reaction products of prenyl acceptor with hypSc: assay of Example 5 repeated with hypSc
Description: FIG. 7 relates to the functional evaluation of HypSc. Thus, HypSc prenyltransferase activity was assayed as described above with respect to FIG. 2A, using 1,6-DHN as a prenyl acceptor (in each of lanes 1-4), with no prenyl acceptor in lane 1, DMAPP in lanes 2 and 3, and GPP in lane 4. No Mg^2+ was used in lane 2. The samples were incubated overnight at room temperature.
In order to validate this model, HypSc was subcloned from genomic DNA, and over-expressed in E. coli as an octa-histidine tagged protein and purified for Ni^2+-chelation chromatography. The purified enzyme was then assayed for prenyltransferase activity using DMAPP and GPP as prenyl donors.
The assay described in Example 5 was repeated with hypSc and (a) 1,6-DHN (2), (b) 2,7-DHN (3), (c) daidzein ([…], 5), (d) genistein (5,7,4′-trihydroxyisoflavone, 8), (e) naringenin (5,7,4′-trihydroxyflavonone, 9), (f) olivetol (12), and (g) resveratrol (3,4′,5-trihydroxystilbene, 13).

antibacterial = details: Schutz, Phytochemistry 40:1273-1277 (1995); cited from earlier work

Compound	reaction products of prenyl acceptor with ORF2 (Orf2 [1])	Orf2 prenyltransferase activity in the presence of flavonoids, isoflavonoids and related compounds (Orf2 [2])	reaction products of prenyl acceptor with hypSc (HypSc)	function as substrates for Orf2 (converted into prenylated derivatives) (Orf2 [2])	further results
Oc1ccc(C=Cc2cc(O)cc(O)c2)cc1 [resveratrol, 3,4′,5-trihydroxystilbene]	4-geranyl-resveratrol	showed prenyltransferase activity	4-dimethylallyl-resveratrol	–	–
CC(C)=CCC/C(C)=C/Cc1c(O)cc2c(c1O)C(=O)C[C@@H](c1ccc(O)cc1)O2 [6-geranyl naringenin]	–	–	–	–	antibacterial activity (antibacterial): significant antibacterial activity
CC(C)=CCC/C(C)=C/COP(=O)(O)OP(=O)(O)O [GPP, geranyl diphosphate]	–	–	–	–	relative activity of Orf2 with prenyl donor (Orf2 [1]; purified recombinant Orf2, prenyl donor DMAPP (C5), GPP (C10) or FPP (C15) with aromatic acceptors): highest relative activity
Oc1cc(O)c2ccccc2c1 [1,3-DHN, 1,3-dihydroxynaphthalene]	–	–	–	function as substrates	prenyltransferase activity of ORF2 (Orf2 [1]; either prenyl donor FPP or GPP): prenyltransferase activity was observed
N[C@@H](Cc1ccc(O)cc1)C(=O)O [tyrosine]	–	–	–	did not serve as substrates	–
Oc1ccc2c(O)cccc2c1 [1,6-DHN, 1,6-dihydroxynaphthalene]	5-geranyl-1,6-DHN and 2-geranyl-1,6-DHN	–	5-dimethylallyl-1,6-DHN	function as substrates	prenylated products with ORF2 (Orf2 [1]; absence of magnesium): no prenylated products were observed; prenylated products with ORF2 (Orf2 [1]; presence of magnesium (5 mM MgCl2)): prenylated products were readily observed; prenyltransferase activity of ORF2 (Orf2 [1]; either prenyl donor FPP or GPP): prenyltransferase activity was observed; prenylated products detected by thin layer chromatography (Orf2 [1]; Orf2 incubated with 1,6-DHN and GPP): readily detected; prenyltransferase activity of HypSc (HypSc; DMAPP as prenyl donor, absence of Mg2+): Notable prenyltransferase activity was detected
CCCCCc1cc(O)cc(O)c1 [olivetol]	2-geranyl-olivetol and 4-geranyl-olivetol	active	2-dimethylallyl-olivetol and 4-dimethylallyl-olivetol	–	–
Oc1ccc2ccc(O)cc2c1 [2,7-DHN]	1-geranyl-2,7-DHN and 1,6-digeranyl-2,7-DHN	–	1-dimethylallyl-2,7-DHN	function as substrates	prenyltransferase activity of ORF2 (Orf2 [1]; prenyl donor GPP): prenyltransferase activity was observed
N[C@@H](Cc1ccccc1)C(=O)O [phenylalanine]	–	–	–	did not serve as substrates	–
O=C(O)C(=O)Cc1ccc(O)cc1 [4-HPP, 4-hydroxyphenylpyruvate]	–	–	–	converted by Orf2 into a prenylated derivative	–
O=c1c(O)c(-c2ccc(O)c(O)c2)oc2cc(O)ccc12 [fisetin, 3,3′,4′,7-tetrahydroxyflavone]	–	little or no activity	–	–	–
CCCCCc1cc(O)cc(O)c1C(=O)O [olivetolic acid]	–	active	–	–	–
O=C1C(O)=CC(=O)c2c(O)cc(O)cc21 [flaviolin, 2,5,7-trihydroxy-1,4-naphthoquinone]	–	–	–	function as substrates	–
O=c1c(-c2ccc(O)cc2)coc2cc(O)cc(O)c12 [genistein, 5,7,4′-trihydroxyisoflavone]	7-O-geranyl-genistein	showed prenyltransferase activity	no reaction products detected	–	–
